Assay results published in publication PMC11249646, “Small-Molecule Disruptors of the Interaction between Calcium- and Integrin-Binding Protein 1 and Integrin αIIbβ3 as Novel Antiplatelet Agents” (ACS Pharmacology & Translational Science, 2024).
Read-outs that look alike come from different tables or passages of the source.

Columns and labels:
[1] = biological target: T1, CIB1 and αIIb interaction (CIB1-GST : F-αIIb peptide) (Homo sapiens, UniProt Q99828); assay: FP assay, 1536-well qHTS format (primary and confirmatory screen); assay type: binding; settings: for CONFIRMATORY SCREEN Curve Class / Curve Class (confirmatory screen): qHTS curve class
T1 construct: made in house; host or cells: BL-21 plus RIL cells (E. coli)
T1 sequence (Q99828 1-191): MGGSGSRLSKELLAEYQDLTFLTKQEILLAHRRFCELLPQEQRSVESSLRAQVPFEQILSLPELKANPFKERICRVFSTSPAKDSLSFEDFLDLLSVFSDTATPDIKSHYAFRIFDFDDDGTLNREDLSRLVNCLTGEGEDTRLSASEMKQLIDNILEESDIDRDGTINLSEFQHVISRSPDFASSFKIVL

[2] = biological target: T2, GST-CIB1 : F-scrambled peptide (Homo sapiens, UniProt Q99828); assay: FP scrambled-peptide counter screen, 1536-well format; assay type: binding; settings: for COUNTERSCREEN Curve Class / Curve Class (counterscreen): qHTS curve class; for IC50: read-out: IC50 [μM] (counterscreen)
T2 construct: made in house; host or cells: BL-21 plus RIL cells (E. coli)
T2 sequence (Q99828 1-191): T1 sequence (Q99828 1-191)

[3] = qHTS primary screen hits, Table S2, negative = inhibition
[4] = qHTS primary screen hits, Table S2, negative sign = inhibitory curve, several classes where COUNT > 1
[5] = qHTS primary screen hits, Table S2, read-out: IC50
[6] = Table S3, confirmatory screen, YES/NO call
[7] = Table S3, confirmatory screen, a negative sign marks inhibitory curves
[8] = Table S3, confirmatory screen, negative = inhibition
[9] = Table S3, confirmatory screen, read-out: IC50 [μM] (confirmatory screen)
[10] = qHTS FP screen hits, Table S2, negative = inhibition
[11] = qHTS FP screen hits, Table S2, read-out: IC50
[12] = Table S3, counterscreen, a negative sign marks inhibitory curves
[13] = Table S3, counterscreen, negative = inhibition
[14] = confirmatory screen, negative sign = inhibitory curve
[15] = confirmatory screen, read-out: IC50 [μM] (confirmatory screen)
[16] = counterscreen, negative sign = inhibitory curve
[17] = qHTS primary screen hits, Table S2, negative sign = inhibitory curve
[18] = qHTS primary screen of LOPAC/NPACT libraries, negative = inhibition
[19] = qHTS primary screen of LOPAC/NPACT libraries, negative sign = inhibitory curve
[20] = qHTS primary screen of LOPAC/NPACT libraries, read-out: IC50

NC(=O)c1ncn([C@@H]2O[C@H](CO)[C@@H](O)[C@H]2O)c1O [NCGC00094087-05] was tested. Which “CONFIRMATORY SCREEN Efficacy (%)” value ([1]; confirmatory screen) did it give?
The value was -5.43%.

What about the “CONFIRMATORY SCREEN Curve Class” value ([1]; confirmatory screen) of the same molecule?
The value was 4.

What about the “Efficacy (%)” value [1, 3] of the same molecule?
The value was -52%.

What about the “Curve Class” value [1, 4] of the same molecule?
The value was -1.2.

What about the IC50 [1, 5] of the same molecule?
The IC50 was 20 µM.

What about the “COUNTERSCREEN Efficacy (%)” value ([2]; counterscreen) of the same molecule?
The value was 0%.

What about the “COUNTERSCREEN Curve Class” value ([2]; counterscreen) of the same molecule?
The value was 4.

Which results are given for CCCCCCCCn1cc(CC(N)=O)c2cc(-c3cccc(C)c3)ccc21.O=C(O)C(F)(F)F [NCGC00348156-02]?
Confirm? (confirmatory screen) [1, 6]: YES; Curve Class (confirmatory screen) [1, 7]: -2.4; Efficacy (%) (confirmatory screen) [1, 8]: -95%; IC50 [1, 9]: 44.7 µM; Efficacy (%) [1, 10]: -74%; IC50 [1, 11]: 50.1 µM; Curve Class (counterscreen) [2, 12]: -2.1; Efficacy (%) (counterscreen) [2, 13]: -121%; IC50 ([2]; Table S3, counterscreen): 39.8 µM

For Cc1cc(NS(=O)(=O)c2ccc(NC(=O)Cc3cccc4ccccc34)cc2)no1.O=C(O)C(F)(F)F [NCGC00244880-01], which “Confirm? (confirmatory screen)” value [1, 6] is on record?
The value was “YES”.

And the “Curve Class (confirmatory screen)” value [1, 7]?
The value was -2.2.

What about the “Efficacy (%) (confirmatory screen)” value [1, 8] of the same molecule?
The value was -48%.

What about the IC50 [1, 9] of the same molecule?
Its IC50 is 31.6 µM.

What about the “Efficacy (%)” value [1, 3] of the same molecule?
Its value is -21%.

And the “Curve Class” value [1, 4]?
Its value is -1.4.

What about the IC50 [1, 5] of the same molecule?
The IC50 was 17.8 µM.

And the “Curve Class (counterscreen)” value [2, 12]?
Its value is -2.2.

What about the “Efficacy (%) (counterscreen)” value [2, 13] of the same molecule?
The value was -64%.

And the IC50 ([2]; Table S3, counterscreen)?
The IC50 was 20 µM.

Which results are given for C[C@H](Cc1ccc(O)c(O)c1)[C@@H](C)Cc1ccc(O)c(O)c1 [NCGC00094201-01]?
Efficacy (%) (confirmatory screen) ([1]; confirmatory screen): -95%; Confirm? (confirmatory screen) ([1]; confirmatory screen, YES/NO): YES; Curve Class (confirmatory screen) [1, 14]: -2.2; IC50 [1, 15]: 39.8 µM; Efficacy (%) [1, 3]: -32%; Curve Class [1, 4]: -2.4; IC50 [1, 5]: 27.1 µM; Efficacy (%) (counterscreen) ([2]; counterscreen): -68%; Curve Class (counterscreen) [2, 16]: -1.2; IC50 ([2]; counterscreen): 12.6 µM

Which “CONFIRMATORY SCREEN Efficacy (%)” value ([1]; confirmatory screen) does the source give for CC1CCC2(C1)N=C(Nc1nc3ccccc3o1)NC1=C2C(=O)CCC1.O=C(O)C(F)(F)F (centres unmarked) [NCGC00188039-01] here?
The value was -33%.

What about the “CONFIRMATORY SCREEN Curve Class” value ([1]; confirmatory screen) of the same molecule?
Its value is 4.

And the “Efficacy (%)” value [1, 3]?
Its value is -25%.

And the “Curve Class” value [1, 17]?
Its value is -2.4.

What about the IC50 [1, 5] of the same molecule?
Its IC50 is 31.6 µM.

And the “COUNTERSCREEN Efficacy (%)” value ([2]; counterscreen)?
The value was -20%.

And the “COUNTERSCREEN Curve Class” value ([2]; counterscreen)?
Its value is 4.

With CS(=O)(=O)c1ccc(C(=O)OCC(=O)N2CCN(CCC3CCCCC3)CC2)cc1[N+](=O)[O-].O=C(O)C(F)(F)F [NCGC00188531-01] as the molecule, how does the “Confirm? (confirmatory screen)” value [1, 6] read?
Its value is “YES”.

What about the “Curve Class (confirmatory screen)” value [1, 7] of the same molecule?
The value was -3.

And the “Efficacy (%) (confirmatory screen)” value [1, 8]?
The value was -49%.

And the IC50 [1, 9]?
The IC50 was 39.8 µM.

And the “Efficacy (%)” value [1, 3]?
Its value is -26%.

And the “Curve Class” value [1, 4]?
Its value is -1.4.

And the IC50 [1, 5]?
Its IC50 is 0.9 µM.

And the “Curve Class (counterscreen)” value [2, 12]?
Its value is -2.2.

And the “Efficacy (%) (counterscreen)” value [2, 13]?
Its value is -50%.

What about the IC50 ([2]; Table S3, counterscreen) of the same molecule?
Its IC50 is 39.8 µM.

Which results are given for Cc1ccc(OCCn2c(CCNC(=O)c3ccsc3)nc3ccccc32)cc1.O=C(O)C(F)(F)F [NCGC00238707-01]?
Curve Class (confirmatory screen) [1, 7]: 3; Efficacy (%) (confirmatory screen) [1, 8]: 35%; Efficacy (%) [1, 3]: -22%; Curve Class [1, 4]: -1.4; IC50 [1, 5]: 11.2 µM; Efficacy (%) (counterscreen) [2, 13]: 109%; IC50 ([2]; Table S3, counterscreen): 50.1 µM

Which “Curve Class (confirmatory screen)” value [1, 7] does the source give for C/C(=C\c1ccc2c(c1)OCO2)C1Nc2cccc3cccc(c23)N1 [NCGC00182904-03] here?
The value was 4.

What about the “Efficacy (%) (confirmatory screen)” value [1, 8] of the same molecule?
The value was -33%.

And the “Efficacy (%)” value [1, 3]?
Its value is -34%.

What about the “Curve Class” value [1, 4] of the same molecule?
The value was -2.4.

And the IC50 [1, 5]?
Its IC50 is 35.5 µM.

And the “Confirm? (counterscreen)” value ([2]; Table S3, counterscreen, YES/NO call)?
Its value is “YES”.

What about the “Curve Class (counterscreen)” value [2, 12] of the same molecule?
The value was -1.2.

What about the “Efficacy (%) (counterscreen)” value [2, 13] of the same molecule?
The value was -77%.

And the IC50 ([2]; Table S3, counterscreen)?
Its IC50 is 12.6 µM.

For CCCC(=O)c1cc(O)c(O)cc1O [NCGC00091839-03], which “Efficacy (%) (confirmatory screen)” value ([1]; confirmatory screen) is on record?
Its value is -145%.

And the “Confirm? (confirmatory screen)” value ([1]; confirmatory screen, YES/NO)?
Its value is “YES”.

And the “Curve Class (confirmatory screen)” value [1, 14]?
Its value is -1.1.

And the IC50 [1, 15]?
Its IC50 is 35.5 µM.

What about the “Efficacy (%)” value [1, 10] of the same molecule?
The value was -92%.

What about the IC50 [1, 11] of the same molecule?
Its IC50 is 105 µM.

And the “Efficacy (%) (counterscreen)” value ([2]; counterscreen)?
The value was -107%.

What about the “Curve Class (counterscreen)” value [2, 16] of the same molecule?
Its value is -1.1.

What about the IC50 ([2]; counterscreen) of the same molecule?
The IC50 was 31.6 µM.

CCOC(=O)c1ccc(O)c2ncc(N3CCC(C(=N)N)CC3)cc12.O=C(O)C(F)(F)F [NCGC00241051-01] was tested. Which “Efficacy (%) (confirmatory screen)” value ([1]; confirmatory screen) did it give?
The value was -129%.

And the “Confirm? (confirmatory screen)” value ([1]; confirmatory screen, YES/NO)?
The value was “YES”.

And the “Curve Class (confirmatory screen)” value [1, 14]?
The value was -1.1.

What about the “Efficacy (%)” value [1, 3] of the same molecule?
Its value is -93%.

What about the “Curve Class” value [1, 4] of the same molecule?
Its value is -1.1.

What about the “Efficacy (%) (counterscreen)” value ([2]; counterscreen) of the same molecule?
The value was -115%.

And the “Curve Class (counterscreen)” value [2, 16]?
The value was -1.3.

What about the IC50 ([2]; counterscreen) of the same molecule?
Its IC50 is 7.1 µM.

How did the “Efficacy (%) (counterscreen)” value ([2]; counterscreen) turn out when O=C1c2cccc(O)c2C(=O)c2c(O)cccc21 [NCGC00091367-05] was run?
Its value is -17%.

And the “Confirm? (counterscreen)” value ([2]; counterscreen, YES/NO)?
Its value is “YES”.

And the “Curve Class (counterscreen)” value [2, 16]?
Its value is 4.

For CCCCCCCCCCCC[N+](C)(C)CCOc1ccccc1.[Br-] [NCGC00091010-03], which “Efficacy (%)” value [1, 3] is on record?
Its value is -55%.

And the “Curve Class” value [1, 17]?
The value was -3.

And the IC50 [1, 5]?
Its IC50 is 89.1 µM.

How did the “Efficacy (%)” value [1, 3] turn out when Oc1ccc(Cl)cc1Sc1cc(Cl)ccc1O [NCGC00013679-06] was run?
The value was -30%.

And the “Curve Class” value [1, 4]?
The value was -2.4.

And the IC50 [1, 5]?
The IC50 was 50.1 µM.

For CCc1nnc(Nc2ncnc3scc(-c4cccc(S(C)(=O)=O)c4)c23)s1.O=C(O)C(F)(F)F [NCGC00188733-01], which “Efficacy (%)” value [1, 3] is on record?
The value was -31%.

And the “Curve Class” value [1, 4]?
Its value is -2.2.

And the IC50 [1, 5]?
Its IC50 is 50.1 µM.

Which results are given for CN(Cc1cnc2nc(N)nc(N)c2n1)c1ccc(C(=O)N[C@@H](CCC(=O)O)C(=O)O)cc1 [NCGC00260705-01]?
Efficacy (%) [1, 3]: -58%; Curve Class [1, 17]: -2.2; IC50 [1, 5]: 44.7 µM

For COC(=O)C1=C(C)NC(C)=C(C(=O)OCCN(C)Cc2ccccc2)C1c1cccc([N+](=O)[O-])c1.Cl (centres unmarked) [NCGC00261494-01], which “Efficacy (%)” value [1, 18] is on record?
Its value is -16%.

What about the “Curve Class” value [1, 19] of the same molecule?
The value was -1.2.

And the IC50 [1, 20]?
Its IC50 is 3.5 µM.

COC(=O)C1=C(C)NC(C)=C(C(=O)OC)C1c1ccccc1[N+](=O)[O-] [NCGC00015748-13] was tested. Which “Efficacy (%)” value [1, 18] did it give?
Its value is -24%.

And the “Curve Class” value [1, 19]?
The value was -1.2.

And the IC50 [1, 20]?
Its IC50 is 11.2 µM.
